Assay results taken from patent EP3685668B1, “COMPOSITION COMPRISING ACIBENZOLAR-S-METHYL AS EFFECTIVE INGREDIENT FOR CONTROLLING BURSAPHELENCHUS XYLOPHILUS DISEASE AND METHOD FOR CONTROLLING BURSAPHELENCHUS XYLOPHILUS USING SAME” (Industry Foundation of Chonnam National University, priority 2017, dated 2019).

Experiments:
Test in all cases: qRT-PCR expression of induced resistance gene in pine tree callus
Format in all cases: cell-based
Conditions in all cases: 200 µg/mℓ, 24 hours
Antipeptide = system: Antipeptide
Protocol: (§1) For in vitro analysis of induced resistance, the expression of PR genes and other plant defense-related genes was determined, which are evolved in various defense mechanisms including induced resistance. The primers of sixteen induced resistance-related genes of pine tree used in this invention were listed in the below and elongation factor_1 alpha were used as a reference gene. [Table 4] The primer list of defense resistance-related genes
(§2) After the treatment with 200 µg / mℓ of candidates of the selected induced resistance material, expression of the induced resistance-related gene in pine callus was determined by qRT-PCR using the primer pairs of defense resistance-related genes in Table 4. As a candidate group of an induced resistance material in pine tree, acibenzolar-S-methyl (ASM), TDL (Tiadinil), ITL (Isotianil), PBZ (Probenzole), AZO (Azoxystrobin), VMA (Validamycin A), MeJA (Methyl jasmonate), BABA (DL-3-aminobutyric acid), 2,3-BDO (2,3-Butanediol), GABA (r-Aminobutyric acid), glucan (Glucan), ER (Ergosterol), and AZA (Azelaic acid) were used. For the in vitro analysis of the expression of induced resistance gene in pine callus, the selected induced resistance materials were applied with 500 µℓ of LM liquid medium on a surface of pine tree callus (100 mg) in 12-well microplate to give final concentration of 200 µg/mℓ. Then, the callus surface was sufficiently reacted for 24 hours with the candidate of pine tree induced resistance material by shaking at 50 rpm in a 25 °C shaking incubator under dark condition. RNAs were extracted from the callus after completion of the reaction with an induced resistance material, followed by synthesis of cDNAs. Then, by carrying out qRT-PCR, the expression of induced resistance genes was determined. [Table 5] Expression of induced resistance gene in pine tree callus by TDL, PBZ, ASM, ITL, AZO, VMA, glucan, and AZA
(§3) Based on the results of assay using young plants and gene expression by selected induce resistance materials, it seemed that acibenzolar-S-methyl had the most excellent effect. Thus, the following tests were carried out using acibenzolar-S-methyl only. Expression of the induced resistance genes at different culture time after the chemical treatment was examined. For the in vitro assay, LM medium containing pine tree callus was treated with acibenzolar-S-methyl at concentration of 200 µg / mℓ, followed by reaction for 1 day, 7 days, or 14 days in a 25°C shaking incubator under dark condition. RNAs were extracted from the callus after the reaction followed by synthesis of cDNAs. Then, by carrying out qRT-PCR, the expression of the induced resistance genes was determined. Depending on reaction time after the treatment, i.e., after 1 day, 7 days, or 14 days, the expression of the obtained induced resistance genes was examined. As a result of the in vitro callus assay depending on reaction time after the treatment with acibenzolar-S-methyl, the expression of the induced resistance-related genes is the highest at 1 day after the treatment with acibenzolar-S-methyl and gradually diminished over time, as it is shown in Table 7. In this regard, it is contemplated that the expression of genes acquired by acibenzolar-S-methyl is not maintained in highly expressed state until the pathogen invasion and just memorized with at minimum level so that the energy consumption by plant can be efficiently managed. [Table 7] Expression of induced resistance gene in pine tree callus by acibenzolar-S-methyl depending on reaction time
(§4) To have an in vitro assay according to different methods of treatment with acibenzolar-S-methyl, two separate treatment methods, i.e., surface treatment (spraying treatment) of pine tree callus and direct application of the induced resistance material to an LM medium containing pine tree callus, were performed. […]

Extensin = system: Extensin
Protocol: as §1, §2, §3, §4

Heat shock 70 = system: Heat shock 70
Protocol: as §1, §2, §3, §4

Hydroxyproline = system: Hydroxyproline
Protocol: as §1, §2, §3, §4

Metallothionein = system: Metallothionein
Protocol: as §1, §2, §3, §4

PR_10 family = system: PR_10 family
Protocol: as §1, §2, §3, §4

PR_1b family = system: PR_1b family
Protocol: as §1, §2, §3, §4

PR_2 family = system: PR_2 family
Protocol: as §1, §2, §3, §4

PR_3 family class 1 = system: PR_3 family class 1
Protocol: as §1, §2, §3, §4

PR_3 family class 4 = system: PR_3 family class 4
Protocol: as §1, §2, §3, §4

PR_4 family = system: PR_4 family
Protocol: as §1, §2, §3, §4

PR_5 family = system: PR_5 family
Protocol: as §1, §2, §3, §4

PR_9 family = system: PR_9 family
Protocol: as §1, §2, §3, §4

Xyloglucan = system: Xyloglucan
Protocol: as §1, §2, §3, §4

CC(C)[C@@H](C)/C=C/[C@@H](C)[C@H]1CC[C@H]2C3=CC=C4C[C@@H](O)CC[C@]4(C)[C@H]3CC[C@]12C [ER, Ergosterol]
Expression of induced resistance gene, Antipeptide (Antipeptide): 2.11 | Expression of induced resistance gene, Extensin (Extensin): 1.06 | Expression of induced resistance gene, Heat shock 70 (Heat shock 70): 1.91 | Expression of induced resistance gene, Hydroxyproline (Hydroxyproline): 1.42 | Expression of induced resistance gene, Metallothionein (Metallothionein): 1.37 | Expression of induced resistance gene, PR_10 family (PR_10 family): 1.21 | Expression of induced resistance gene, PR_1b family (PR_1b family): 1.14 | Expression of induced resistance gene, PR_2 family (PR_2 family): 1.17 | Expression of induced resistance gene, PR_3 family class 1 (PR_3 family class 1): 1.06 | Expression of induced resistance gene, PR_3 family class 4 (PR_3 family class 4): 0.81 | Expression of induced resistance gene, PR_4 family (PR_4 family): 1.13 | Expression of induced resistance gene, PR_5 family (PR_5 family): 1.05 | Expression of induced resistance gene, PR_9 family (PR_9 family): 1.35 | Expression of induced resistance gene, Xyloglucan (Xyloglucan): 1.05

Cc1ccc(NC(=O)c2snnc2C)cc1Cl [TDL, Tiadinil]
Expression of induced resistance gene, Antipeptide (Antipeptide): 0.64 | Expression of induced resistance gene, Extensin (Extensin): 1.05 | Expression of induced resistance gene, Heat shock 70 (Heat shock 70): 0.29 | Expression of induced resistance gene, Hydroxyproline (Hydroxyproline): 0.97 | Expression of induced resistance gene, Metallothionein (Metallothionein): 0.1 | Expression of induced resistance gene, PR_10 family (PR_10 family): 1.19 | Expression of induced resistance gene, PR_1b family (PR_1b family): 1.05 | Expression of induced resistance gene, PR_2 family (PR_2 family): 0.98 | Expression of induced resistance gene, PR_3 family class 1 (PR_3 family class 1): 0.82 | Expression of induced resistance gene, PR_3 family class 4 (PR_3 family class 4): 1.22 | Expression of induced resistance gene, PR_4 family (PR_4 family): 1.24 | Expression of induced resistance gene, PR_5 family (PR_5 family): 1.33 | Expression of induced resistance gene, PR_9 family (PR_9 family): 1.48 | Expression of induced resistance gene, Xyloglucan (Xyloglucan): 1.23

N#Cc1ccccc1NC(=O)c1snc(Cl)c1Cl [ITL, Isotianil]
Expression of induced resistance gene, Antipeptide (Antipeptide): 0.75 | Expression of induced resistance gene, Extensin (Extensin): 1.39 | Expression of induced resistance gene, Heat shock 70 (Heat shock 70): 0.43 | Expression of induced resistance gene, Hydroxyproline (Hydroxyproline): 0.72 | Expression of induced resistance gene, Metallothionein (Metallothionein): 0.09 | Expression of induced resistance gene, PR_10 family (PR_10 family): 1 | Expression of induced resistance gene, PR_1b family (PR_1b family): 1.77 | Expression of induced resistance gene, PR_2 family (PR_2 family): 1.48 | Expression of induced resistance gene, PR_3 family class 1 (PR_3 family class 1): 0.95 | Expression of induced resistance gene, PR_3 family class 4 (PR_3 family class 4): 0.81 | Expression of induced resistance gene, PR_4 family (PR_4 family): 1.39 | Expression of induced resistance gene, PR_5 family (PR_5 family): 0.95 | Expression of induced resistance gene, PR_9 family (PR_9 family): 1.88 | Expression of induced resistance gene, Xyloglucan (Xyloglucan): 0.97

CO/C=C(/C(=O)OC)c1ccccc1Oc1cc(Oc2ccccc2C#N)ncn1 [AZO, Azoxystrobin]
Expression of induced resistance gene, Antipeptide (Antipeptide): 0.69 | Expression of induced resistance gene, Extensin (Extensin): 2.01 | Expression of induced resistance gene, Heat shock 70 (Heat shock 70): 0.38 | Expression of induced resistance gene, Hydroxyproline (Hydroxyproline): 1.11 | Expression of induced resistance gene, Metallothionein (Metallothionein): 0.14 | Expression of induced resistance gene, PR_10 family (PR_10 family): 1.4 | Expression of induced resistance gene, PR_1b family (PR_1b family): 1.66 | Expression of induced resistance gene, PR_2 family (PR_2 family): 1.8 | Expression of induced resistance gene, PR_3 family class 1 (PR_3 family class 1): 1.11 | Expression of induced resistance gene, PR_3 family class 4 (PR_3 family class 4): 1.01 | Expression of induced resistance gene, PR_4 family (PR_4 family): 2.04 | Expression of induced resistance gene, PR_5 family (PR_5 family): 1.52 | Expression of induced resistance gene, PR_9 family (PR_9 family): 1.92 | Expression of induced resistance gene, Xyloglucan (Xyloglucan): 1.93
